Reference: ChEMBL document CHEMBL1828583, “Discovery process and pharmacological characterization of a novel dual orexin 1 and orexin 2 receptor antagonist useful for treatment of sleep disorders” (Bioorg Med Chem Lett, 2011)

Key:
Orexin receptor type 2 = biological target: T1, Orexin receptor type 2 (Homo sapiens, UniProt O43614); experiment: Antagonist activity at recombinant human OX2R expressed in CHO cells by FLIPR calcium based functional assay; type: cell-based
T1 sequence (O43614 whole entry): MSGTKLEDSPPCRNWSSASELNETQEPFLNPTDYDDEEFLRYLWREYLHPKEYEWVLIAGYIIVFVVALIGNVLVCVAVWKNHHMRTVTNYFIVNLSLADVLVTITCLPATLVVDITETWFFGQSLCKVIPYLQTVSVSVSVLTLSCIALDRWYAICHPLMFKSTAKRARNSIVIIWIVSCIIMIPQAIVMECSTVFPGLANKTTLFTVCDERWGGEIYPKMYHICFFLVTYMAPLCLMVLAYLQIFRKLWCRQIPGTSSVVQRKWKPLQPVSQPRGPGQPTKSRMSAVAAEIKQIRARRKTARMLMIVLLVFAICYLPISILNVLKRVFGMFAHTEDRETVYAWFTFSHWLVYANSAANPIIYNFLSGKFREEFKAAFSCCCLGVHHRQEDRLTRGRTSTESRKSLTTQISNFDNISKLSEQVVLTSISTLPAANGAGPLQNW

[1] = biological target: T2, Orexin/Hypocretin receptor type 1 (Homo sapiens, UniProt O43613); experiment: Antagonist activity at recombinant human OX1R expressed in CHO cells by FLIPR calcium based functional assay; type: cell-based
T2 sequence (O43613 whole entry): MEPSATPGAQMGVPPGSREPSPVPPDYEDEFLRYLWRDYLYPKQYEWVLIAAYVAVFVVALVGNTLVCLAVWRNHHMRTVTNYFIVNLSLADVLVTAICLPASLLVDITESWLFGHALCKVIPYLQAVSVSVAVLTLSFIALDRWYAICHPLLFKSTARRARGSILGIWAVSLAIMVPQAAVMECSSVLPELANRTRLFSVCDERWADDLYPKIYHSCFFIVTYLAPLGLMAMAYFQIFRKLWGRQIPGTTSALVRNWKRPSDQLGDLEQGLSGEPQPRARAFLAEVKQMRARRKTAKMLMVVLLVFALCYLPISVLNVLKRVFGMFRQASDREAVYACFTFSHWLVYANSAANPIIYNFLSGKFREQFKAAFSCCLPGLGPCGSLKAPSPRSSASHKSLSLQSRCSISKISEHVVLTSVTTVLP

Rattus norvegicus [2] = experiment: Neurotoxicity in CD rat assessed as impairment of motor coordination at 1 to 10 mg/kg, po by rotarod test; type: toxicity, organism-based; parameters: dose 1-10 mg/kg, route oral; settings: in vivo
Rattus norvegicus [3] = experiment: Neurotoxicity in CD rat assessed as impairment of motor coordination at 1 to 10 mg/kg, po by rotarod test in presence of 1 g/kg, ip ethanol; type: toxicity, organism-based; parameters: dose 1-10 mg/kg, route oral; settings: in vivo

SMILES | Ki (Orexin receptor type 2) | Ki [1] | Activity (Rattus norvegicus [2]) | Activity (Rattus norvegicus [3])
COc1cccc(C(=O)N2CCCCC2CCOc2ccc(Cl)c(Cl)c2)c1 (racemic) | 501 nM | 126 nM | – | –
O=C(NC[C@H]1CCCCN1C(=O)c1ccccc1-c1ccccc1)c1ccc(F)cc1 | 31.6 nM | 39.8 nM | – | –
O=C(CC[C@@H]1CCCCN1C(=O)c1ccccc1-c1ccccc1)c1ccccc1 | 20 nM | 10 nM | – | –
Cc1ccc(-c2nc3ccc(C)cn3c2CC(=O)N(C)C)cc1 [ZOLPIDEM] | – | – | Toxic | Toxic
O=C(NC[C@@H]1CCCCN1C(=O)c1ccccc1-c1ccccc1)c1ccccc1 | 20 nM | 7.94 nM | – | –
O=C(C[C@@H]1CCCCN1C(=O)c1ccccc1-c1ccccc1)Nc1ccccc1 | 31.6 nM | 50.1 nM | – | –
O=C(NC[C@@H]1CCCCN1C(=O)c1ccccc1-c1ccccc1)Nc1ccccc1 | 5.01 nM | 1 nM | – | –
